Read-outs that look alike come from different tables or passages of the source.
Key:
[1] = test system: larvae of the mustard beetle (Phaedon cochleariae); assay: Phaedon test (PHAECO spray treatment); conditions: Phaedon cochleariae, 168 h, read-out: activity in % (beetle larvae killed)
[2] = log P by HPLC on reversed-phase columns (EEC Directive 79/831 Annex V.A8); type: physicochemical
[3] = test system: caterpillars of the armyworm (Spodoptera frugiperda); assay: Spodoptera frugiperda test (SPODFR spray treatment); type: in vivo; conditions: Spodoptera frugiperda, 168 h, read-out: activity in % (caterpillars killed)
[4] = reversed-phase C18 HPLC column, pH 2.7, HPLC reversed-phase C18, acidic range pH 2.7 (HCOOH), only or first value of the cell, read-out: log P
[5] = application rate 100 g/ha, after 7 days

| SMILES | pest or weed control at 100 g/ha [1] | chromatographic logP ([2]; pH 2.7, log P) | pest or weed control at 100 g/ha [3] | chromatographic logP [2, 4] | pest or weed control at 100 g/ha [3, 5] |
| --- | --- | --- | --- | --- | --- |
| Cc1cc(C#N)cc(C(=O)NC2COC2)c1NC(=O)c1cc(Cn2nnnc2C(F)(F)F)nn1-c1ncccc1Cl [Example 12] | 100% | 2.17 | 100% | – | – |
| COc1ccc(CNC(=O)c2cc(Cl)cc(C)c2NC(=O)c2cc(Cn3nnc(C(F)(F)F)n3)nn2-c2ncccc2Cl)cc1 [Example 102] | 100% | 3.76 | 100% | – | – |
| Cc1cc(C#N)cc(C(=O)NCc2cccc(OC(F)(F)F)c2)c1NC(=O)c1cc(Cn2nnc(C(F)(F)F)n2)nn1-c1ncccc1Cl [Example 166] | 100% | – | – | 3.91 | 100% |
| Cc1cc(Cl)cc(C(=O)NCc2ccc(C(F)(F)F)cn2)c1NC(=O)c1cc(Cn2nnc(C(F)(F)F)n2)nn1-c1ncccc1Cl [Example 226] | 100% | – | – | 3.7 | 100% |
| O=C(NCc1ccc(OC(F)(F)F)cc1)c1cc(Br)cc(Cl)c1NC(=O)c1cc(Cn2nnc(C(F)(F)F)n2)nn1-c1ncccc1Cl [Example 195] | 100% | – | – | 4.31 | 100% |
| Cc1cc(Cl)cc(C(=O)NCc2cccc(OC(F)(F)F)c2)c1NC(=O)c1cc(Cn2nnc(C(F)(F)F)n2)nn1-c1ncccc1Cl [Example 104] | 100% | – | – | 4.36 | 100% |
| O=C(NC1COC1)c1cc(Cl)cc(Cl)c1NC(=O)c1cc(Cn2nnc(C(F)(F)F)n2)nn1-c1ncccc1Cl [Example 5] | 100% | 2.79 | 100% | – | – |
| Cc1cc(C#N)cc(C(=O)NCc2ccc(OC(F)F)cc2)c1NC(=O)c1cc(Cn2nnc(C(F)F)n2)nn1-c1ncccc1Cl [Example 165] | 100% | – | – | 3.04 | 100% |
| Cc1cc(Cl)cc(C(=O)NCc2ccc(F)c(F)c2F)c1NC(=O)c1cc(Cn2nnc(C(F)(F)F)n2)nn1-c1ncccc1Cl [Example 108] | 100% | – | – | 4.01 | 100% |
| Cc1cc(Cl)cc(C(=O)NC(C)c2cc(Cl)ccc2Cl)c1NC(=O)c1cc(Cn2nnc(C(F)(F)F)n2)nn1-c1ncccc1Cl (stereo not drawn) [Example 144] | 100% | – | – | 4.58 | 100% |
| Cc1cc(C#N)cc(C(=O)NCc2ccc(OC(F)F)cc2)c1NC(=O)c1cc(Cn2nnc(C(F)(F)F)n2)nn1-c1c(Cl)cccc1Cl [Example 216] | 100% | – | – | 4.1 | 100% |
| Cc1cc(Cl)cc(C(=O)NCc2ccccc2OC(F)(F)F)c1NC(=O)c1cc(Cn2nnc(C(F)(F)F)n2)nn1-c1ncccc1Cl [Example 103] | 100% | – | – | 4.34 | 100% |
| Cc1cc(C#N)cc(C(=O)NCc2ccccc2)c1NC(=O)c1cc(Cn2nc(C(F)(F)F)c(C(F)(F)F)n2)nn1-c1ncccc1Cl [Example 136] | 100% | – | – | 4.15 | 100% |
| O=C(NCc1cccc(Cl)c1)c1cc(Br)cc(Cl)c1NC(=O)c1cc(Cn2nnc(C(F)(F)F)n2)nn1-c1ncccc1Cl [Example 204] | 100% | 4.09 | 100% | – | – |
| O=C(NCc1cccc(OC(F)(F)F)c1)c1cc(Cl)cc(F)c1NC(=O)c1cc(Cn2nnc(C(F)(F)F)n2)nn1-c1ncccc1Cl [Example 210] | 100% | – | – | 4.22 | 100% |
| Cc1cc(C#N)cc(C(=O)NCc2ccc(OC(F)(F)F)cc2)c1NC(=O)c1cc(Cn2nnc(C(F)F)n2)nn1-c1ncccc1Cl [Example 164] | 100% | – | – | 3.42 | 100% |
| Cc1cc(Cl)cc(C(=O)NCc2ccc(Cl)nc2)c1NC(=O)c1cc(Cn2nnc(C(F)(F)F)n2)nn1-c1ncccc1Cl [Example 235] | 100% | 3.42 | 100% | – | – |
| Cc1cc(C#N)cc(C(=O)NCc2cccc(S(F)(F)(F)(F)F)c2)c1NC(=O)c1cc(Cn2nnnc2C(F)(F)F)nn1-c1ncccc1Cl [Example 68] | 100% | – | – | 3.69 | 100% |
| Cc1c(F)ccc(C(=O)NCc2cccc(Cl)c2)c1NC(=O)c1cc(Cn2nnc(C(F)(F)F)n2)nn1-c1ncccc1Cl [Example 183] | 100% | 3.82 | 100% | – | – |
| Cc1cccc(CNC(=O)c2cc(Cl)cc(C)c2NC(=O)c2cc(Cn3nnc(C(F)(F)F)n3)nn2-c2ncccc2Cl)c1 [Example 89] | 100% | 4.08 | 100% | – | – |

| SMILES | pest or weed control at 100 g/ha [1] | chromatographic logP ([2]; pH 2.7, log P) | pest or weed control at 100 g/ha [3] | chromatographic logP [2, 4] | pest or weed control at 100 g/ha [3, 5] |
| --- | --- | --- | --- | --- | --- |
| Cc1cc(C#N)cc(C(=O)NCc2ccc(S(F)(F)(F)(F)F)cc2)c1NC(=O)c1cc(Cn2nnc(C(F)(F)F)n2)nn1-c1ncccc1Cl [Example 64] | 100% | – | – | 4.01 | 100% |
| Cc1cc(C#N)cc(C(=O)NCc2ccc(Cl)nc2)c1NC(=O)c1cc(Cn2nnc(C(F)(F)F)n2)nn1-c1ncccc1Cl [Example 66] | 100% | 3.11 | 100% | – | – |
| Cc1c(F)ccc(C(=O)NCc2ccc(OC(F)(F)F)cc2)c1NC(=O)c1cc(Cn2nnc(C(F)(F)F)n2)nn1-c1ncccc1Cl [Example 187] | 100% | – | – | 4.05 | 100% |
| Cc1cc(C#N)cc(C(=O)NCc2ccc(Cl)cc2Cl)c1NC(=O)c1cc(Cn2nnc(C(F)(F)F)n2)nn1-c1ccccc1Cl [Example 77] | 100% | – | – | 4.42 | 100% |
| Cc1ccccc1C(C)NC(=O)c1cc(Cl)cc(C)c1NC(=O)c1cc(Cn2nnc(C(F)(F)F)n2)nn1-c1ncccc1Cl (stereo not drawn) [Example 112] | 100% | 4.2 | 100% | – | – |
| Cc1cc(I)cc(C(=O)NCc2ccc(OC(F)F)cc2)c1NC(=O)c1cc(Cn2nnc(C(F)(F)C(F)(F)F)n2)nn1-c1ncccc1Cl [Example 149] | 100% | – | – | 4.35 | 100% |
| Cc1cc(Cl)cc(C(=O)NC(C)c2ccc(C(C)(C)C)cc2)c1NC(=O)c1cc(Cn2nnc(C(F)(F)F)n2)nn1-c1ncccc1Cl (stereo not drawn) [Example 115] | 100% | – | – | 5.06 | 100% |
| Cc1c(F)ccc(C(=O)NCc2cccc(OC(F)(F)F)c2)c1NC(=O)c1cc(Cn2nnc(C(F)(F)F)n2)nn1-c1ncccc1Cl [Example 186] | 100% | – | – | 4.07 | 100% |
| Cc1cc(C#N)cc(C(=O)NCc2ccc(Cl)c(Cl)c2)c1NC(=O)c1cc(Cn2nnc(C(F)(F)F)n2)nn1-c1ccccc1Cl [Example 137] | 100% | – | – | 3.99 | 100% |
| Cc1cc(C#N)cc(C(=O)NC(C)c2ccccc2)c1NC(=O)c1cc(Cn2nnc(C(F)(F)F)n2)nn1-c1ccccc1Cl (stereo not drawn) [Example 74] | 100% | – | – | 3.68 | 100% |
| COc1cccc(CNC(=O)c2cc(Cl)cc(C)c2NC(=O)c2cc(Cn3nnc(C(F)(F)F)n3)nn2-c2ncccc2Cl)c1 [Example 101] | 100% | 3.81 | 100% | – | – |
| Cc1cc(C#N)cc(C(=O)NCc2ccccc2OC(F)F)c1NC(=O)c1cc(Cn2nnc(C(F)(F)F)n2)nn1-c1c(Cl)cccc1Cl [Example 189] | 100% | – | – | 3.75 | 100% |
| Cc1cc(C#N)cc(C(=O)NC(C)c2ccc(Cl)cc2)c1NC(=O)c1cc(Cn2nnc(C(F)(F)F)n2)nn1-c1ncccc1Cl (stereo not drawn) [Example 67] | 100% | – | – | 3.91 | 100% |
| Cc1cc(C#N)cc(C(=O)NCc2ccccc2OC(F)(F)F)c1NC(=O)c1cc(Cn2nnc(C(F)(F)F)n2)nn1-c1c(Cl)cccc1Cl [Example 188] | 100% | – | – | 4.13 | 100% |
| Cc1cc(Cl)cc(C(=O)NCc2ccccc2OC(F)F)c1NC(=O)c1cc(Cn2nnc(C(F)F)n2)nn1-c1ncccc1Cl [Example 175] | 100% | – | – | 3.47 | 100% |
| Cc1cc(Cl)cc(C(=O)N[C@H](C)c2ccc([N+](=O)[O-])cc2)c1NC(=O)c1cc(Cn2nnc(C(F)(F)F)n2)nn1-c1ncccc1Cl [Example 128] | 100% | – | – | 3.85 | 100% |
| Cc1cc(Cl)cc(C(=O)NC(C)c2cccc(Cl)c2)c1NC(=O)c1cc(Cn2nnc(C(F)(F)F)n2)nn1-c1ncccc1Cl (stereo not drawn) [Example 110] | 100% | 4.31 | 100% | – | – |
| Cc1cc(Cl)cc(C(=O)NCc2ccc(OC(F)(F)F)cc2)c1NC(=O)c1cc(Cn2nnc(C(F)(F)F)n2)nn1-c1ncccc1Cl [Example 126] | 100% | – | – | 4.46 | 100% |
| Cc1cc(C#N)cc(C(=O)NC2CCS(=O)(=O)C2)c1NC(=O)c1cc(Cn2nnc(C(F)(F)F)n2)nn1-c1c(F)cccc1F (stereo not drawn) [Example 52] | 100% | – | – | 2.75 | 100% |

— patent US8791143B2, “Anthranilic diamide derivatives having cyclic side-chains” (priority 2010, dated 2014)
